Reference: US5075449A, “Method of optically resolving (±)-1-(3-pyridylcarbonyl)-5-methyl-2-pyrazoline” (Mitsui Toatsu Chemicals, Inc., priority 1988, dated 1991)

Assays:
[1] = Acute toxicity (LD50), intravenous, rat; format: in vivo; conditions: in vivo, iv, mortality up to 72 hours after administration
Protocol: (§1) The drug was intraveneously administered to rats and determined the mortality ratio up to 72 hours after the administration, to calculate 50% lethal dose (LD50) by acute toxicity according to the routine method.

[2] = test system: infarcted lesions caused by the occlusion of middle cerebral artery in rat; experiment: Effect on cerebral ischemic (infarcted) lesions caused by occlusion of middle cerebral artery in rat; format: in vivo, Rat (male Sprague Dawley); conditions: rat MCA occlusion; for Infarcted lesions (ratio of infarcted lesions to total area) / Reduction ratio of infarcted lesions: i.v. infusion 10 mg/kg/hr for 24 hours; for Infarcted lesions (ratio of infarcted lesions to total area): TTC staining, control group 16.1, * P < 0.05, ** P < 0.001 to control; for Reduction ratio of infarcted lesions: infarcted lesions of control group defined as 100%
Protocol: (§2) Rat middle cerebral artery was occluded according to the method of Tamura et. al. (J. Cerebral Blood Flow and Metabolism, 53-60, 1981).
Male Sprague Dawley rats, aged 8 to 10 weeks, were occluded of their left middle cerebral artery under 2% halothane anesthesia. (-)-1-(3-Pyridylcarbonyl)-5-methyl-2-pyrazoline dissolved in 0.9% physiological saline was infused into rats through the caudal vein at a rate of 10 mg/kg/hr for 24 hours. A control group was intraveneously infused with 0.9% physiological saline for 24 hours. Rats were sacrificed to death 24 hours after the occlusion of the middle cerebral artery and brain was excised from each rat. After staining with TTC, the excised brain was cut in 6 identical parts from its top. Cross sections were photographed to measure the ratio of infarcted lesions to total area with a planimeter so that the reduction ratio of infarcted lesions by the drug administration was calculated, provided that the infarcted lesions of the control group was defined as 100%.

[3] = test system: cerebral edema caused by the occlusion of rat middle cerebral artery; experiment: Suppression of ischemic cerebral edema caused by occlusion of middle cerebral artery in rat; format: in vivo, Rat (male Sprague Dawley); conditions: rat MCA occlusion; for Suppression ratio of cerebral edema: i.v. infusion through caudal vein 3 or 10 mg/kg/hr for 24 hours (dose not given), brain water content at 24 hours, * P < 0.05, ** P < 0.001 to control
Protocol: as §2
Male Sprague Dawley rats, aged 8 to 10 weeks, were occluded of their left middle cerebral artery under 2% halothane anesthesia. (-)-1-(3-Pyridylcarbonyl)-5-methyl-2-pyrazoline dissolved in 0.9% physiological saline was infused into rats through the caudal vein at a rate of 3 or 10 mg/kg/hr for 24 hours. Rats were sacrificed to death 24 hours after the occlusion of the middle cerebral artery and brain was excised from each rat to determine the water contents in the two cerebral hemispheres, left and right, by the wet and dry weighing method. The occlusion of middle cerebral artery was also conducted on the control group of rats, and they were subsequently infused with 0.9% physiological saline for 24 hours similarly in the drug-administered group. The suppressive ratio of cerebral edema was determined by the following equation. [formula] Cl: Water contents in left cerebral hemisphere of control group CR: Water contents in right cerebral hemisphere of control group
SL: Water contents in left cerebral hemisphere of drug-administered group
SR: Water contents in right cerebral hemisphere of drug-administered group

rats = experiment: Acute toxicity (LD50), intravenous, rat; format: in vivo; conditions: for Acute toxicity LD50: mortality up to 72 hours after administration, 4320 min
Protocol: as §1

[4] = literature: Anesthesiology, 47, 285, 1977; Nippon Rinsho, 43, 185, 1985; cited from earlier work

| Compound | LD50 at 72 h [1] | Infarcted lesions (ratio of infarcted lesions to total area) [2] | Reduction ratio of infarcted lesions [2] | Suppression ratio of cerebral edema [3] | Acute toxicity LD50 (rats) | Acute toxicity (in words) (rats) | Effect on infarcted area (in words) ([2]; 10 mg/kg/hr for 24 hours) | Effect on cerebral edema (in words) [3] | Brain protective action / suppression of cerebral edema (in words) [4] |
| --- | --- | --- | --- | --- | --- | --- | --- | --- | --- |
| CC1CC=NN1C(=O)c1cccnc1 (racemic) [Racemic modification, (±)-1-(3-Pyridylcarbonyl)-5-methyl-2-pyrazoline] | 800 mg/kg | 11.0% | 32.0 | 18.7% |  |  |  |  |  |
| CC1CC=NN1C(=O)c1cccnc1 (single isomer, unassigned; (+)) [(+)-form, (+)-1-(3-Pyridylcarbonyl)-5-methyl-2-pyrazoline] |  |  |  | 15.7% | 400 mg/kg |  |  |  |  |
| CC1CC=NN1C(=O)c1cccnc1 (single isomer, unassigned; (-)) [(-)-form, (-)-1-(3-Pyridylcarbonyl)-5-methyl-2-pyrazoline] |  | 8.5% | 48.9 | 28.4% | 1200 mg/kg | less than that of the racemic modification or (+)-form | significantly reduced the infarcted area caused by the occlusion of rat middle cerebral artery and it acted more strongly than the racemic modification | significantly depressed cerebral edema caused by the occlusion of the middle cerebral artery in rats and it acted more strongly than the racemic modification or (+)-form |  |
| CCCC(C)C1(CC)C(=O)NC(=O)NC1=O (centres unmarked) [pentobarbital] |  |  |  |  |  |  |  |  | protective action of brain against cerebral ischemia |
